Source: patent publication US4864023A, “Pyrido(3,2,1-IJ)-1,3,4-benzoxadiazine derivatives” (priority 1988, dated 1989)
In brackets after ≈: the same amount, converted by molar mass.

What was measured:
[1] = tested on: Proteus rettgeri ATCC 14505; test: in vitro antibacterial activity, standard agar dilution method; assay type: cell-based; conditions: Providencia rettgeri, ATCC14505, aerobic, read-out: minimum inhibitory concentration (MIC)
[2] = tested on: Salmonella typhimurium IFO 12529; test: as above; assay type: cell-based; conditions: Salmonella enterica, aerobic, read-out: minimum inhibitory concentration (MIC)
[3] = tested on: Clostridium botulinum NR 26ll; test: microbe, parasite or virus in culture; assay type: cell-based; conditions: NR26LL, read-out: minimum inhibitory concentration (MIC)
[4] = tested on: Serratia marcescens IFO 12648; test: in vitro antibacterial activity, standard agar dilution method; assay type: cell-based; conditions: IFO12648, aerobic, read-out: minimum inhibitory concentration (MIC)
[5] = tested on: Peptococcus variabilis ATCC 14955; test: as above; assay type: cell-based; conditions: anaerobic, read-out: minimum inhibitory concentration (MIC)
[6] = tested on: Escherichia coli NIHJ JC-2; test: as above; assay type: cell-based; conditions: NIHJJC2, aerobic, read-out: minimum inhibitory concentration (MIC)
[7] = tested on: Staphylococcus aureus Smith; test: as above; assay type: cell-based; conditions: Staphylococcus aureus Smith; aerobic; agar dilution; read-out: minimum inhibitory concentration (MIC)
[8] = tested on: Alcaligenes faecalis IFO 13111; test: as above; assay type: cell-based; conditions: IFO13111, aerobic, read-out: minimum inhibitory concentration (MIC)
[9] = tested on: Enterobacter aerogenes NR 2945; test: as above; assay type: cell-based; conditions: Klebsiella aerogenes, NR2945, aerobic, read-out: minimum inhibitory concentration (MIC)
[10] = tested on: Streptococcus pneumoniae 6-001; test: in vivo therapeutic efficacy, lethal systemic infection in mice; conditions: Streptococcus pneumoniae, 6001, po, 120 h; S. pneumoniae 6-001 i.p. infection, ICR mice, p.o. at time of injection, mortality 5 days; read-out: 50% effective dose (ED50)
Description: (§1) The in vivo antibacterial activities of pyrido[3,2,1-ij]-1,3,4-benzoxadiazine derivatives prepared by Example 5, Example 30, Example 65 and Example 66 as mentioned below were tested against lethal infection of Escherichia coli ML4707, Pseudomonas aeruginosa 4au542 and Streptococcus pneumoniae 6-001. ICR mice weighing about 20 g were infected by intraperitoneal injection of a corresponding bacterial suspension. The test compounds were administered orally or subcutaneously at the time of injection. […] The respective 50% effective dose (ED50, mg/kg) which protects 50% of the animals from death caused by infection, is shown in Table 3.

[11] = tested on: Pseudomonas aeruginosa 4au542; test: as above; conditions: po, 120 h, P. aeruginosa 4au542 i.p. infection, ICR mice, p.o. at time of injection, mortality 5 days, read-out: 50% effective dose (ED50)
Description: as §1

[12] = tested on: Bacteroides fragilis ATCC 23745; test: in vitro antibacterial activity, standard agar dilution method; assay type: cell-based; conditions: ATCC23745, anaerobic, read-out: minimum inhibitory concentration (MIC)
[13] = tested on: Fusobacterium varium ATCC 8501; test: as above; assay type: cell-based; conditions: ATCC8501, anaerobic, read-out: minimum inhibitory concentration (MIC)

CN1COc2c(N3CCC(N)C3)c(F)cc3c(=O)c(C(=O)O)cn1c23 (stereo not shown) [Example 30, 10-(3-amino-1-pyrrolidinyl)-9-fluoro-3-methyl-7-oxo-2,3-dihydro-7H-pyrido[3,2,1-ij]-1,3,4-benzoxadiazine-6-carboxylic acid] showed an MIC [1] of 0.1 µg/mL (≈ 0.287 µM), an MIC [2] of 0.0065 µg/mL (≈ 0.0187 µM) and an MIC [3] of 0.013 µg/mL (≈ 0.0373 µM). For the same compound, the MIC [4] was 0.05 µg/mL (≈ 0.144 µM), the MIC [5] was 0.2 µg/mL (≈ 0.574 µM) and the MIC [6] was 0.013 µg/mL (≈ 0.0373 µM). It also gave an MIC [7] of 0.05 µg/mL (≈ 0.144 µM), an MIC [8] of 1.56 µg/mL (≈ 4.48 µM) and an MIC [9] of 0.0033 µg/mL (≈ 0.00947 µM). The ED50 [10] was 65.9 mg/kg, the ED50 [11] was 57 mg/kg and the MIC [12] was 0.2 µg/mL (≈ 0.574 µM).
Work on CN1CCN(c2c(F)cc3c(=O)c(C(=O)O)cn4c3c2OCN4C)CC1 [Example 5, 9-fluoro-3-methyl-10-(4-methyl-1-piperazinyl)-7-oxo-2,3-dihydro-7H-pyrido[3,2,1-ij]-1,3,4-benzoxadiazine-6-carboxylic acid] yielded an MIC [1] of 0.2 µg/mL (≈ 0.552 µM), an MIC [2] of 0.025 µg/mL (≈ 0.069 µM) and an MIC [3] of 0.1 µg/mL (≈ 0.276 µM). It also gave an MIC [4] of 0.1 µg/mL (≈ 0.276 µM), an MIC [5] of 0.78 µg/mL (≈ 2.15 µM) and an MIC [6] of 0.025 µg/mL (≈ 0.069 µM). It also gave an MIC [7] of 0.2 µg/mL (≈ 0.552 µM), an MIC [8] of 0.39 µg/mL (≈ 1.08 µM) and an MIC [9] of 0.013 µg/mL (≈ 0.0359 µM). It also gave an MIC [13] of 12.5 µg/mL (≈ 34.5 µM), an ED50 [10] of 10.3 mg/kg and an ED50 [11] of 13.4 mg/kg. The MIC [12] was 0.78 µg/mL (≈ 2.15 µM).
